Test system: 354836-022-R-J1-PDC multicell spheroid viability
Assay: Anticancer human tumor 354836-022-R-J1-PDC patient-derived head and neck squamous cell carcinoma cell line growth inhibition [PI3K]
Details: for IC50: curve of first compound; for viability, T/C: stronger effect = lower value
Outline: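 Combination activity was assessed by viability in multicellular tumor spheroids carrying HUVEC and MSC components. Agents were tested with PI3K inhibitors from a Cmax-based top dose (or 10 microM) downward in half-log increments.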

[1] = second compound 0.0316 µM, first compound 0.000316 µM
[2] = second compound 0.0316 µM, first compound 0.001 µM
[3] = second compound 0.0316 µM, first compound 0.00316 µM
[4] = second compound 0.0316 µM, first compound 0.01 µM
[5] = second compound 0.0316 µM, first compound 0.0316 µM
[6] = second compound 0.0316 µM, first compound 0.1 µM
[7] = second compound 0.1 µM, first compound 0.000316 µM
[8] = second compound 0.1 µM, first compound 0.001 µM
[9] = second compound 0.1 µM, first compound 0.00316 µM
[10] = second compound 0.1 µM, first compound 0.01 µM
[11] = second compound 0.1 µM, first compound 0.0316 µM
[12] = second compound 0.1 µM, first compound 0.1 µM
[13] = second compound 0.316 µM, first compound 0.000316 µM
[14] = second compound 0.316 µM, first compound 0.001 µM
[15] = second compound 0.316 µM, first compound 0.00316 µM
[16] = second compound 0.316 µM, first compound 0.01 µM
[17] = second compound 0.316 µM, first compound 0.0316 µM
[18] = second compound 0.316 µM, first compound 0.1 µM
[19] = second compound 1 µM, first compound 0.000316 µM
[20] = second compound 1 µM, first compound 0.001 µM
[21] = second compound 1 µM, first compound 0.00316 µM
[22] = second compound 1 µM, first compound 0.01 µM
[23] = second compound 1 µM, first compound 0.0316 µM
[24] = second compound 1 µM, first compound 0.1 µM
[25] = second compound 3.16 µM, first compound 0.000316 µM
[26] = second compound 3.16 µM, first compound 0.001 µM
[27] = second compound 3.16 µM, first compound 0.00316 µM
[28] = second compound 3.16 µM, first compound 0.01 µM
[29] = second compound 3.16 µM, first compound 0.0316 µM
[30] = second compound 3.16 µM, first compound 0.1 µM
[31] = second compound 10 µM, first compound 0.000316 µM
[32] = second compound 10 µM, first compound 0.001 µM
[33] = second compound 10 µM, first compound 0.00316 µM
[34] = second compound 10 µM, first compound 0.01 µM
[35] = second compound 10 µM, first compound 0.0316 µM
[36] = second compound 10 µM, first compound 0.1 µM
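Further: spheroids exposed to agents for seven days before the viability read.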

CC(=O)c1c(C)c2cnc(Nc3ccc(N4CCNCC4)cn3)nc2n(C2CCCC2)c1=O + Cc1nc(NC(=O)N2CCCC2C(N)=O)sc1-c1ccnc(C(C)(C)C(F)(F)F)c1
IC50 (second compound 0.0316 µM): > 100 nM | IC50 (second compound 0.1 µM): > 100 nM | IC50 (second compound 0.316 µM): > 100 nM | IC50 (second compound 1 µM): > 100 nM | IC50 (second compound 3.16 µM): > 100 nM | IC50 (second compound 10 µM): < 0.316 nM | viability, T/C [1]: 105% | viability, T/C [2]: 96.8% | viability, T/C [3]: 105% | viability, T/C [4]: 83.7% | viability, T/C [5]: 117% | viability, T/C [6]: 101% | viability, T/C [7]: 103% | viability, T/C [8]: 91.8% | viability, T/C [9]: 92.9% | viability, T/C [10]: 92.8% | viability, T/C [11]: 89.4% | viability, T/C [12]: 111% | viability, T/C [13]: 84.1% | viability, T/C [14]: 83.5% | viability, T/C [15]: 85.8% | viability, T/C [16]: 96.6% | viability, T/C [17]: 86.4% | viability, T/C [18]: 88.9% | viability, T/C [19]: 71% | viability, T/C [20]: 89.5% | viability, T/C [21]: 74.6% | viability, T/C [22]: 73.3% | viability, T/C [23]: 73.5% | viability, T/C [24]: 85.2% | viability, T/C [25]: 63% | viability, T/C [26]: 72.1% | viability, T/C [27]: 67.8% | viability, T/C [28]: 60% | viability, T/C [29]: 59.4% | viability, T/C [30]: 67.5% | viability, T/C [31]: 41% | viability, T/C [32]: 37.3% | viability, T/C [33]: 35.7% | viability, T/C [34]: 35.4% | viability, T/C [35]: 34.9% | viability, T/C [36]: 39.7%

CC(C)n1nc(-c2ccc3oc(N)nc3c2)c2c(N)ncnc21 + Cc1nc(NC(=O)N2CCCC2C(N)=O)sc1-c1ccnc(C(C)(C)C(F)(F)F)c1
IC50 (second compound 0.0316 µM): 14.2 nM | IC50 (second compound 0.1 µM): 8.94 nM | IC50 (second compound 0.316 µM): 11.1 nM | IC50 (second compound 1 µM): 8.28 nM | IC50 (second compound 3.16 µM): 3.89 nM | IC50 (second compound 10 µM): < 0.316 nM | viability, T/C [1]: 92.2% | viability, T/C [2]: 87.7% | viability, T/C [3]: 88.7% | viability, T/C [4]: 44.3% | viability, T/C [5]: 41.7% | viability, T/C [6]: 9.88% | viability, T/C [7]: 89.6% | viability, T/C [8]: 82.7% | viability, T/C [9]: 102% | viability, T/C [10]: 45.5% | viability, T/C [11]: 36% | viability, T/C [12]: 11.5% | viability, T/C [13]: 76.1% | viability, T/C [14]: 80.2% | viability, T/C [15]: 81.3% | viability, T/C [16]: 49.1% | viability, T/C [17]: 26.3% | viability, T/C [18]: 10.8% | viability, T/C [19]: 72.5% | viability, T/C [20]: 69.4% | viability, T/C [21]: 69.2% | viability, T/C [22]: 43% | viability, T/C [23]: 26.5% | viability, T/C [24]: 8.31% | viability, T/C [25]: 55.8% | viability, T/C [26]: 45.2% | viability, T/C [27]: 60.2% | viability, T/C [28]: 39.2% | viability, T/C [29]: 22% | viability, T/C [30]: 5.92% | viability, T/C [31]: 40.9% | viability, T/C [32]: 40.5% | viability, T/C [33]: 40.1% | viability, T/C [34]: 26.4% | viability, T/C [35]: 15.2% | viability, T/C [36]: 4.44%

— PubChem BioAssay AID1963981 (Molecular Pharmacology Branch, DTP, NCI, 2024)
